Test results as given in PubChem BioAssay AID489006 (Sanford-Burnham Center for Chemical Genomics, 2010).
Calls of active or inactive are those of the source. No rule for the calls is given here.

System: Jurkat NF-kB reporter, luminescence
Assay: NF-kB reporter inhibition in Jurkat cells, dose response, selectivity assay for B-cell receptor NF-kB inhibitor project, cell-based, luminescence (AID 489006)

Row | IC50 | Compound
1 | 6.83 µM | CCC(CC)C(=O)Nc1ccc(Sc2ccc([N+](=O)[O-])cc2)cc1
2 | > 80 µM (inactive) | COc1ccc(NC(=O)c2nnn(Cc3cccc(F)c3)c2N)c(OC)c1
3 | 38.9 µM (inactive) | CCN(C(=O)CN1C(=O)NC(c2ccccc2)(c2ccc(C)c(C)c2)C1=O)C1CCCCC1 (stereo not drawn)
4 | 39.9 µM (inactive) | CCn1c(CN2CCN(c3ccc(Cl)cc3)CC2)nc2ccccc21
5 | > 80 µM (inactive) | COc1ccccc1/C=C1\SC(=S)N(CCC(=O)Nc2nnc(C)s2)C1=O
6 | 0.7 µM | Cc1nc2cc(-c3ccc(Cl)cc3)nn2c(C)c1CCC(=O)NC(C)c1ccc2c(c1)OCCO2 (stereo not drawn)
7 | > 80 µM (inactive) | CCCCOc1ccc(NC(=O)C(=O)NCCCn2ccnc2)cc1
8 | 7.41 µM | Cc1cccc(C(=O)Nc2ccc(CC(=O)O)cc2)c1
9 | > 80 µM (inactive) | O=C(Oc1cccc(/C=N/Nc2nc(N3CCOCC3)nc(N3CCOCC3)n2)c1)c1ccco1
10 | > 80 µM (inactive) | COc1cc(OC)c(/C=N/NC(N)=S)cc1Br
11 | 12 µM | O=C(Nc1nc2nc(-c3ccccc3)cc(-c3ccccc3)n2n1)c1ccco1
12 | > 80 µM (inactive) | Cc1nnc2c3ccccc3c(-c3ccccc3)nn12
13 | > 80 µM (inactive) | CC(C)N1C(=O)S/C(=C/c2ccc3c(c2)n(C)c(=O)n3C)C1=O
14 | > 80 µM (inactive) | CCn1c(=O)cc(OCC(=O)NCc2ccc(C)o2)c2ccccc21
15 | > 80 µM (inactive) | O=C(N/N=C/c1cccnc1)c1cc(-c2ccccc2OCc2ccccc2)n[nH]1
16 | > 80 µM (inactive) | CN(C)c1cc[n+](Cc2c(Cl)cccc2Cl)cc1

More lines, now with the values behind:

Row | Compound | IC50
17 | O=C(CCCN1C(=O)S/C(=C\C=C\c2ccccc2)C1=O)Nc1ccc(O)cc1 | > 80 µM (inactive)
18 | O=C(CSCCO)Nc1ccc(C23CC4CC(CC(C4)C2)C3)cc1 | > 80 µM (inactive)
19 | Cc1c(CCC(=O)N2CCC(C(=O)O)(c3ccccc3)CC2)c(=O)oc2cc3oc4c(c3cc12)CCCC4 | 4.93 µM
20 | Cc1csc(NC(=O)CCc2c(C)nc3cc(-c4ccc(Cl)cc4)nn3c2C)n1 | 0.36 µM
21 | O=C(NNC(=O)C12CC3CC(CC(C3)C1)C2)c1cccc(O)c1 | > 80 µM (inactive)
22 | Cc1cc(N(C)C)ccc1N=Nc1ccc(N)cc1 | > 80 µM (inactive)
23 | CCn1c(=O)c2cc(C(=O)NC(C)C)sc2c2ccccc21 | > 80 µM (inactive)
24 | CC1Cc2ccccc2N1S(=O)(=O)c1cnc(Cl)c(Cl)c1 (stereo not drawn) | 31.6 µM (inactive)
25 | O=C(Nc1nc2c(Br)cc(Br)cc2c(=O)s1)c1ccco1 | 2.52 µM
26 | COc1ccc(OC)c(NC(=O)c2[nH]c(C)c(C(C)=O)c2C)c1 | > 80 µM (inactive)
27 | CC1=CC(C)(C)Nc2ccc(OC(=O)C(C)N3C(=O)c4ccccc4C3=O)cc21 (stereo not drawn) | 1.19 µM
28 | COc1ccc(-c2noc(CCCC(=O)Nc3ccc(C(N)=O)cc3)n2)cc1 | 11.9 µM
29 | COc1ccc(OC)c(S(=O)(=O)Nc2ccc(-c3ccc4nnc(C)n4n3)cc2)c1 | 11.5 µM
30 | CCOC(=O)C(=CNc1cc(C)ccc1C)C(=O)OCC | > 80 µM (inactive)
31 | COc1ccc2nc(C)cc(Sc3nc4ccccc4s3)c2c1 | 2.53 µM
32 | O=C(Nc1cccc(Oc2ccc3c(c2)C(=O)NC3=O)c1)c1cccs1 | > 80 µM (inactive)

Row | Compound | IC50
33 | CCC(C)NC(=O)c1c(N)n(/N=C/c2ccccn2)c2nc3ccccc3nc12 (stereo not drawn) | 22.7 µM (inactive)
34 | CCSc1ncc(Cl)c(C(=O)Nc2sc3c(c2C(=O)NCc2cccnc2)CCCC3)n1 | > 80 µM (inactive)
35 | CCc1ccc(/C=C2/SC(=S)N(CCC(=O)Nc3cccnc3)C2=O)cc1 | > 80 µM (inactive)
36 | CCC(=O)N1c2ccccc2[C@@H](N(C(C)=O)c2ccccc2)C[C@H]1C | 57 µM (inactive)
37 | CCCCCOc1ccc(NC(=O)C(=O)NCCCn2ccnc2)cc1 | > 80 µM (inactive)
38 | C=C(C)[C@@H]1CCC2(C(=O)O)CC[C@]3(C)[C@H](CC[C@@H]4[C@@]5(C)CCC(=O)C(C)(C)[C@@H]5CC[C@]43C)[C@@H]12 (stereo partly drawn) | > 80 µM (inactive)
39 | COc1cccc(Cn2nnc(C(=O)Nc3cc(Cl)ccc3OC)c2N)c1 | > 80 µM (inactive)
40 | CC(=O)Nc1ccc(Nc2nc(-c3sc(NC(C)=O)nc3C)cs2)cc1 | 8.63 µM
41 | CCOc1ccc(-n2c(-c3ccccc3)c[n+]3c2CCCCC3)cc1 | > 80 µM (inactive)
42 | CC1CCN(c2c(NCc3ccc(C(=O)N4c5ccccc5CC4C)cc3)c(=O)c2=O)CC1 (stereo not drawn) | > 80 µM (inactive)
43 | Cc1cc2ccccn2c1C(=O)c1ccc(NN)c([N+](=O)[O-])c1 | > 80 µM (inactive)
44 | N=c1c2c(n(Cc3ccc(Cl)c(Cl)c3)c3c1CCC3)CCCC2 | 9.18 µM
45 | COc1ccc(-c2ccc(OC)c([C@H]3[C@H]4C=CC[C@@H](C)[C@@H]4C(=O)N3Cc3ccccc3)c2)cc1C | > 80 µM (inactive)
46 | CCN(CC)S(=O)(=O)c1ccc(N2CCOCC2)c(NC(=O)c2[nH]c(C)c(C(C)=O)c2C)c1 | 47 µM (inactive)
47 | Cc1ccc(/C=C2\SC(=S)N(CCCC(=O)NNC(=O)c3ccccc3O)C2=O)cc1 | 0.89 µM
48 | CCn1c(=O)cc(SCC(=O)N2CCC(C)CC2)c2ccccc21 | > 80 µM (inactive)
